Experimental data: patent US20260364145A1, “MODIFIED CAVEOLIN-1 PEPTIDE FORMULATIONS AND METHODS OF MANUFACTURING AND USE THEREOF” (REIN THERAPEUTICS, INC., priority 2023, published 2026)
“And” between values parts separate entries of the source, which are not always exact repeats. Equal values may be shown once. Read-outs that look alike come from different tables or passages of the source. Non-standard residues stand in square brackets, D forms with d. Residues, ends and D or L forms follow the SMILES beside them.

Columns and labels:
[1] = APi2355 concentrations in BALF and tissues at 42 days post-treatment (LC/MS/MS); type: in vivo, rat (Sprague Dawley); conditions: for BALF concentration / Heart concentration / Kidney concentration / Liver concentration / Lung concentration / Skin concentration: SC 2.0 mg/kg, listed as APi2335, 2 mg/kg, 60480 min; for concentration at 1008 h: rat, sc, 2 mg/kg
Aqueous solubility = type: physicochemical
[2] = Plasma pharmacokinetics after single-dose subcutaneous administration; type: in vivo, rat (Sprague Dawley); conditions: for plasma concentration / concentration at 1 h / concentration at 2 h / concentration at 4 h / concentration at 8 h / concentration at 24 h / concentration at 48 h / concentration at 96 h / concentration at 168 h / concentration at 240 h / concentration at 336 h / concentration at 528 h / concentration at 696 h / concentration at 840 h / concentration at 1008 h: SC 2.0 mg/kg, 2 mg/kg; for concentration at 1 h / concentration at 2 h / concentration at 4 h / concentration at 8 h / concentration at 24 h / concentration at 48 h / concentration at 96 h / concentration at 168 h / concentration at 240 h / concentration at 336 h / concentration at 528 h / concentration at 696 h / concentration at 840 h / concentration at 1008 h: rat, plasma, sc
[3] = individual rats, Group 1, MSP #3 (W/O/W)
[4] = individual rats, Group 2, MSP #5 (S/O/W)

With `CC(=O)N[C@H](C)C(=O)N[C@H](C)C(=O)N[C@@H](CCC(=O)O)C(=O)NCC(=O)N[C@@H](CCCCN)C(=O)N[C@@H](C)C(=O)N[C@@H](CO)C(=O)N[C@@H](Cc1ccccc1)C(=O)N[C@H](C(=O)N[C@H](C(=O)N[C@@H](Cc1ccccc1)C(=O)N[C@H](C(=O)N[C@H](C(=O)N[C@H](C(=O)N[C@@H](CCCCN)C(=O)NCC(=O)N[C@@H](CO)C(=O)N[C@H](C)C(=O)N[C@H](C)C(N)=O)[C@@H](C)O)C(C)C)[C@@H](C)O)[C@@H](C)O)[C@@H](C)O` [APi2355, Ac-aaEGKASFTTFTVTKGSaa-NH2] (Ac-[dA][dA]EGKASFTTFTVTKGS[dA][dA]-NH2) the BALF concentration [1, 3] was 5.67 ng/mL and 1.45 ng/mL and 1.89 ng/mL and 1.47 ng/mL and 0.63 ng/mL and 1.53 ng/mL, the Heart concentration [1, 3] was 10.46 ng/g and 13.81 ng/g and 8.97 ng/g and 11.09 ng/g and 3.41 ng/g and 8.39 ng/g and the Kidney concentration [1, 3] was 63.91 ng/g and 53.55 ng/g and 30.02 ng/g and 62.91 ng/g and 57.32 ng/g and 66.29 ng/g. The Liver concentration [1, 3] was 5.46 ng/g and 1.23 ng/g and 0.69 ng/g and 1.85 ng/g and 3.65 ng/g and 2.86 ng/g, the Lung concentration [1, 3] was 37.40 ng/g and 29.17 ng/g and 36.51 ng/g and 62.92 ng/g and 36.86 ng/g and 38.80 ng/g and the BALF concentration [1, 4] was 0.45 ng/mL and 0.23 ng/mL and 0.70 ng/mL and 0.52 ng/mL and 4.10 ng/mL and 2.17 ng/mL and 0.71 ng/mL. For the same molecule, the Heart concentration [1, 4] was 14.37 ng/g and 14.17 ng/g and 9.32 ng/g and 7.53 ng/g and 15.87 ng/g and 12.57 ng/g and 16.18 ng/g, the Kidney concentration [1, 4] was 31.78 ng/g and 41.08 ng/g and 52.67 ng/g and 38.43 ng/g and 33.98 ng/g and 36.28 ng/g and the Liver concentration [1, 4] was 8.34 ng/g and 8.26 ng/g and 0.24 ng/g and 0.47 ng/g and 1.33 ng/g and 4.81 ng/g and 5.22 ng/g. For the same molecule, the Lung concentration [1, 4] was 35.15 ng/g and 31.08 ng/g and 28.00 ng/g and 53.76 ng/g and 47.20 ng/g and 35.92 ng/g, the Skin concentration ([1]; injection site skin, individual rats, Group 1, MSP #3 (W/O/W)) was 29.72 ng/g and 13.12 ng/g and 14.02 ng/g and 20.81 ng/g and 2.28 ng/g and 31.92 ng/g and the Skin concentration ([1]; injection site skin, individual rats, Group 2, MSP #5 (S/O/W)) was 4.08 ng/g and 4.10 ng/g and 2.92 ng/g and 3.69 ng/g and 3.40 ng/g and 14.71 ng/g and 1.60 ng/g. The concentration at 1008 h ([1]; balf, mean, Group 1, MSP #3 (W/O/W), read-out: BALF concentration, Avg.) was 2.11 ng/mL, the concentration at 1008 h ([1]; balf, mean, Group 2, MSP #5 (S/O/W), read-out: BALF concentration, Avg.) was 1.27 ng/mL and the concentration at 1008 h ([1]; heart, mean, Group 1, MSP #3 (W/O/W), read-out: Heart concentration, Avg.) was 9.35 ng/g. It also gave a concentration at 1008 h ([1]; heart, mean, Group 2, MSP #5 (S/O/W), read-out: Heart concentration, Avg.) of 12.9 ng/g, a concentration at 1008 h ([1]; injection site skin, injection site skin, mean, Group 1, MSP #3 (W/O/W), read-out: Skin concentration, Avg.) of 18.6 ng/g and a concentration at 1008 h ([1]; injection site skin, injection site skin, mean, Group 2, MSP #5 (S/O/W), read-out: Skin concentration, Avg.) of 4.93 ng/g. It also gave a concentration at 1008 h ([1]; kidney, individual rats, Group 2, MSP #5 (S/O/W), read-out: Kidney concentration) of 33.1 ng/g, a concentration at 1008 h ([1]; kidney, mean, Group 1, MSP #3 (W/O/W), read-out: Kidney concentration, Avg.) of 55.7 ng/g and a concentration at 1008 h ([1]; kidney, mean, Group 2, MSP #5 (S/O/W), read-out: Kidney concentration, Avg.) of 38.2 ng/g. For the same molecule, the concentration at 1008 h ([1]; liver, mean, Group 1, MSP #3 (W/O/W), read-out: Liver concentration, Avg.) was 2.62 ng/g, the concentration at 1008 h ([1]; liver, mean, Group 2, MSP #5 (S/O/W), read-out: Liver concentration, Avg.) was 4.09 ng/g and the concentration at 1008 h ([1]; lung, individual rats, Group 2, MSP #5 (S/O/W), read-out: Lung concentration) was 35.9 ng/g. The concentration at 1008 h ([1]; lung, mean, Group 1, MSP #3 (W/O/W), read-out: Lung concentration, Avg.) was 40.3 ng/g, the concentration at 1008 h ([1]; lung, mean, Group 2, MSP #5 (S/O/W), read-out: Lung concentration, Avg.) was 38.1 ng/g and the aqueous solubility (Aqueous solubility) was “relatively low aqueous solubility”. The plasma concentration ([2]; 1 hr, individual rats, Group 1, MSP #3 (W/O/W), 60 min) was 16.02 ng/mL and 311.08 ng/mL, the plasma concentration ([2]; 2 hr, individual rats, Group 1, MSP #3 (W/O/W), 120 min) was 350.92 ng/mL and 558.41 ng/mL and the plasma concentration ([2]; 4 hr, individual rats, Group 1, MSP #3 (W/O/W), 240 min) was 501.64 ng/mL and 36.54 ng/mL. For the same molecule, the plasma concentration ([2]; 8 hr, individual rats, Group 1, MSP #3 (W/O/W), 480 min) was 39.13 ng/mL and 12.62 ng/mL, the plasma concentration ([2]; 1 day, individual rats, Group 1, MSP #3 (W/O/W), 1440 min) was 34.98 ng/mL and 10.17 ng/mL and the plasma concentration ([2]; 2 day, individual rats, Group 1, MSP #3 (W/O/W), 2880 min) was 3.46 ng/mL. The plasma concentration ([2]; 4 day, individual rats, Group 1, MSP #3 (W/O/W), 5760 min) was 1.90 ng/mL, the plasma concentration ([2]; 7 day, individual rats, Group 1, MSP #3 (W/O/W), 10080 min) was 5.66 ng/mL and the plasma concentration ([2]; 10 day, individual rats, Group 1, MSP #3 (W/O/W), 14400 min) was 2.17 ng/mL. The plasma concentration ([2]; 14 day, individual rats, Group 1, MSP #3 (W/O/W), 20160 min) was 6.77 ng/mL and 6.89 ng/mL, the plasma concentration ([2]; 22 day, individual rats, Group 1, MSP #3 (W/O/W), 31680 min) was 7.52 ng/mL and 9.84 ng/mL and the plasma concentration ([2]; 29 day, individual rats, Group 1, MSP #3 (W/O/W), 41760 min) was 0.91 ng/mL and 1.57 ng/mL. The plasma concentration ([2]; 35 day, individual rats, Group 1, MSP #3 (W/O/W), 50400 min) was 0.32 ng/mL and 0.48 ng/mL, the plasma concentration ([2]; 42 day, individual rats, Group 1, MSP #3 (W/O/W), 60480 min) was 0.11 ng/mL and 4.85 ng/mL and the “fraction of total exposure in the first 3 weeks after SC administration” value ([2]; first 3 weeks, SC 2.0 mg/kg APi2355) was “Approximately ⅔”. The concentration at 1 h ([2]; 1 hr, mean, Group 1, MSP #3 (W/O/W)) was 157 ng/mL, the concentration at 1 h ([2]; 1 hr, mean, Group 2, MSP #5 (S/O/W)) was 175 ng/mL and the concentration at 2 h ([2]; 2 hr, mean, Group 1, MSP #3 (W/O/W)) was 198 ng/mL. It also gave a concentration at 2 h ([2]; 2 hr, mean, Group 2, MSP #5 (S/O/W)) of 287 ng/mL, a concentration at 4 h ([2]; 4 hr, mean, Group 1, MSP #3 (W/O/W)) of 185 ng/mL and a concentration at 4 h ([2]; 4 hr, mean, Group 2, MSP #5 (S/O/W)) of 195 ng/mL. The concentration at 8 h ([2]; 8 hr, mean, Group 1, MSP #3 (W/O/W)) was 195 ng/mL, the concentration at 8 h ([2]; 8 hr, mean, Group 2, MSP #5 (S/O/W)) was 130 ng/mL and the concentration at 24 h ([2]; 1 day, mean, Group 1, MSP #3 (W/O/W)) was 10.7 ng/mL. The concentration at 24 h ([2]; 1 day, mean, Group 2, MSP #5 (S/O/W)) was 9.53 ng/mL, the concentration at 48 h ([2]; 2 day, mean, Group 1, MSP #3 (W/O/W)) was 3.2 ng/mL and the concentration at 48 h ([2]; 2 day, mean, Group 2, MSP #5 (S/O/W)) was 5.23 ng/mL. For the same molecule, the concentration at 96 h ([2]; 4 day, mean, Group 1, MSP #3 (W/O/W)) was 3.22 ng/mL, the concentration at 96 h ([2]; 4 day, mean, Group 2, MSP #5 (S/O/W)) was 3.69 ng/mL and the concentration at 168 h ([2]; 7 day, mean, Group 1, MSP #3 (W/O/W)) was 3.34 ng/mL. For the same molecule, the concentration at 168 h ([2]; 7 day, mean, Group 2, MSP #5 (S/O/W)) was 3.37 ng/mL, the concentration at 240 h ([2]; 10 day, mean, Group 1, MSP #3 (W/O/W)) was 5.22 ng/mL and the concentration at 240 h ([2]; 10 day, mean, Group 2, MSP #5 (S/O/W)) was 10.5 ng/mL. For the same molecule, the concentration at 336 h ([2]; 14 day, individual rats, Group 2, MSP #5 (S/O/W), read-out: plasma concentration) was 0.98 ng/mL, the concentration at 336 h ([2]; 14 day, mean, Group 1, MSP #3 (W/O/W), read-out: plasma concentration, Avg.) was 5.41 ng/mL and the concentration at 336 h ([2]; 14 day, mean, Group 2, MSP #5 (S/O/W), read-out: plasma concentration, Avg.) was 1.14 ng/mL. The concentration at 528 h ([2]; 22 day, mean, Group 1, MSP #3 (W/O/W)) was 6.35 ng/mL, the concentration at 528 h ([2]; 22 day, mean, Group 2, MSP #5 (S/O/W)) was 5.26 ng/mL and the concentration at 696 h ([2]; 29 day, mean, Group 1, MSP #3 (W/O/W)) was 2.53 ng/mL. It also gave a concentration at 696 h ([2]; 29 day, mean, Group 2, MSP #5 (S/O/W)) of 2 ng/mL, a concentration at 840 h ([2]; 35 day, mean, Group 1, MSP #3 (W/O/W)) of 0.57 ng/mL and a concentration at 840 h ([2]; 35 day, mean, Group 2, MSP #5 (S/O/W)) of 0.26 ng/mL. It also gave a concentration at 1008 h ([2]; 42 day, mean, Group 1, MSP #3 (W/O/W)) of 1.2 ng/mL and a concentration at 1008 h ([2]; 42 day, mean, Group 2, MSP #5 (S/O/W)) of 0.72 ng/mL.
